Patent publication US8980909B2, “HDAC inhibiting derivatives of camptothecin” (Crystal Biopharmaceutical LLC, priority 2011, dated 2015)

Assays:
HDAC-1 = HDAC-1 (Homo sapiens, UniProt Q13547); test: Inhibition of histone deacetylase enzymatic activity (Fluor-de-Lys), HDAC-1; format: biochemical; conditions: HDAC subtype HDAC-1
Description: The following assay protocol was used to assay the compounds of the invention against the HDAC enzymes (HDAC-1, 2, 3, 4, 5, 6, 7, 8, 9, 10, and 11.). […] The enzyme stock solution was 4 μg/mL in buffer. The compounds were pre-incubated (2 μl in DMSO diluted to […] in buffer for transfer to assay plate) with enzyme (20 μl of 4 μg/ml) for 10 minutes at room temperature (35 μl pre-incubation volume). The mixture was pre-incubated for 5 minutes at room temperature. The reaction was started by bringing the temperature to 37° C. and adding 15 μl substrate. Total reaction volume was 50 μl. […] Such assays, carried out with a range of doses of test compounds, allowed the determination of an approximate IC50 value.

SNB-19 = test: In vitro anti-proliferation assay (ATPlite), SNB-19; format: cell-based; conditions: for IC50: Homo sapiens, CNS Cancer, SNB-19, 72 hours
Description: (§1) Cell antiproliferation was assayed by PerkinElmer ATPlite™ Luminescence Assay System. The cancer cell lines were plated at 10 k cells per well in Costar 96-well plates with different concentration of compounds for 72 hours with […]. After that, one lyophilized substrate solution vial was reconstituted by adding 5 mL of substrate buffer solution and was agitated gently until the solution is homogeneous. 50 μL of mammalian cell lysis solution was added to 100 μL of cell suspension per well of a microplate and the plate was shaken for five minutes in an orbital shaker at 700 rpm. This procedure will lyses the cells and stabilizes the ATP. Next, 50 μL substrate solution was added to the wells and microplate was shaken for five minutes in an orbital shaker at 700 rpm. Finally, the luminescence was measured by a PerkinElmer TopCount® Microplate Scintillation Counter. Such assays, carried out with a range of doses of test compounds, allow the determination of the cellular anti-antiproliferative IC50 of the compounds of the present invention.
(§2) The cellular antiproliferative assay were conducted side-by-side for Irinotecan (a FDA approved semisynthetic Camptothecin), and CY-700 (the first-in-class dual-functional semisynthetic Camptothecin/HDAC inhibitor), in 53 different cancer cell lines of breast cancer, renal cancer, non-small cell lung cancer, colon cancer, leukemia, multiple myeloma, ovarian cancer, prostate cancer, melanoma, and CNS cancer.

CAKI-1 = test: In vitro anti-proliferation assay (ATPlite), CAKI-1; format: cell-based; conditions: for IC50: Homo sapiens, Renal Cancer, CAKI-1, 72 hours
Description: as §1, §2

RXF 393 = test: In vitro anti-proliferation assay (ATPlite), RXF 393; format: cell-based; conditions: for IC50: Homo sapiens, Renal Cancer, RXF 393, 72 hours
Description: as §1, §2

MCF7 = test: In vitro anti-proliferation assay (ATPlite), MCF7; format: cell-based; conditions: for IC50: Homo sapiens, Breast Cancer, MCF7, 72 hours
Description: as §1, §2

T-47D = test: In vitro anti-proliferation assay (ATPlite), T-47D; format: cell-based; conditions: for IC50: Homo sapiens, T47D, Breast Cancer, T-47D, 72 hours
Description: as §1, §2

CCRF-CEM = test: In vitro anti-proliferation assay (ATPlite), CCRF-CEM; format: cell-based; conditions: for IC50: Homo sapiens, Leukemia, CCRF-CEM, 72 hours
Description: as §1, §2

SF-539 = test: In vitro anti-proliferation assay (ATPlite), SF-539; format: cell-based; conditions: for IC50: Homo sapiens, CNS Cancer, SF-539, 72 hours
Description: as §1, §2

SK-MEL-5 = test: In vitro anti-proliferation assay (ATPlite), SK-MEL-5; format: cell-based; conditions: for IC50: Homo sapiens, Melanoma, SK-MEL-5, 72 hours
Description: as §1, §2

NCI/ADR-RES = test: In vitro anti-proliferation assay (ATPlite), NCI/ADR-RES; format: cell-based; conditions: for IC50: Homo sapiens, Ovarian Cancer, NCI/ADR-RES, 72 hours
Description: as §1, §2

SF-268 = test: In vitro anti-proliferation assay (ATPlite), SF-268; format: cell-based; conditions: for IC50: Homo sapiens, CNS Cancer, SF-268, 72 hours
Description: as §1, §2

NCI-H226 = test: In vitro anti-proliferation assay (ATPlite), NCI-H226; format: cell-based; conditions: for IC50: Homo sapiens, NSCLC, NCI-H226, 72 hours
Description: as §1, §2

BT-549 = test: In vitro anti-proliferation assay (ATPlite), BT-549; format: cell-based; conditions: for IC50: Homo sapiens, Breast Cancer, BT-549, 72 hours
Description: as §1, §2

SNB-75 = test: In vitro anti-proliferation assay (ATPlite), SNB-75; format: cell-based; conditions: for IC50: Homo sapiens, CNS Cancer, SNB-75, 72 hours
Description: as §1, §2

OVCAR-8 = test: In vitro anti-proliferation assay (ATPlite), OVCAR-8; format: cell-based; conditions: for IC50: Homo sapiens, Ovarian Cancer, OVCAR-8, 72 hours
Description: as §1, §2

U251 = test: In vitro anti-proliferation assay (ATPlite), U251; format: cell-based; conditions: for IC50: Homo sapiens, U-251, CNS Cancer, U251, 72 hours
Description: as §1, §2

LOX IMVI = test: In vitro anti-proliferation assay (ATPlite), LOX IMVI; format: cell-based; conditions: for IC50: Homo sapiens, Melanoma, LOX IMVI, 72 hours
Description: as §1, §2

[1] = Solubility (comparison in words); format: physicochemical
[2] = In vitro activities (comparison in words, test not specified)
[3] = system: 53 different cancer cell lines; test: In vitro anti-proliferation assay (ATPlite), panel of 53 cancer cell lines; format: cell-based; conditions: among 53 cancer cell lines, side-by-side with Irinotecan
Description: as §1, with “invention. […]” for “invention.”

Sequence of HDAC-1 (Q13547 whole entry): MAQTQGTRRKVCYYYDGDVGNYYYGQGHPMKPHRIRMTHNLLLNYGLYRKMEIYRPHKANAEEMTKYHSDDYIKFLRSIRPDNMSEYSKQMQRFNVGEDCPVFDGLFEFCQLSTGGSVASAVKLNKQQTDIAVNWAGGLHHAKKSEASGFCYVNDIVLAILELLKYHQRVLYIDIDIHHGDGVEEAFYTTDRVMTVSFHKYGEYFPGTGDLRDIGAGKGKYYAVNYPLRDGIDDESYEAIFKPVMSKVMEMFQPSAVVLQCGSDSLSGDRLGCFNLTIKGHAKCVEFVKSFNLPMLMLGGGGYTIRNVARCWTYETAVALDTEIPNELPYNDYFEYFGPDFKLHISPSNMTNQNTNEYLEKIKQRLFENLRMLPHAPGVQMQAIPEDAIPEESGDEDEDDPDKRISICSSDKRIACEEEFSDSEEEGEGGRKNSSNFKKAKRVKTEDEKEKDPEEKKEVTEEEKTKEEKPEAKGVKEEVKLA

For `CCc1c2c(nc3ccc(OC(=O)N4CCC(N5CCCCC5)CC4)cc13)-c1cc3c(c(=O)n1C2)COC(=O)[C@]3(O)CC` [Irinotecan, reference compound], the “HDAC-1 IC50 (result in words)” value (HDAC-1; unit not given) was “No activity”, the IC50 (SNB-19) was 24.1 µM and the IC50 (CAKI-1) was 10.1 µM. The IC50 (RXF 393) was 33.6 µM, the IC50 (MCF7) was 6.1 µM and the IC50 (T-47D) was 24.4 µM. It also gave an IC50 (CCRF-CEM) of 3.5 µM, an IC50 (SF-539) of 5 µM and an IC50 (SK-MEL-5) of 11.4 µM. The IC50 (NCI/ADR-RES) was 42.2 µM, the IC50 (SF-268) was 3.9 µM and the IC50 (NCI-H226) was 8.5 µM. It also gave an IC50 (BT-549) of 18.5 µM, an IC50 (SNB-75) of 15.9 µM and an IC50 (OVCAR-8) of 17.2 µM. For the same compound, the IC50 (U251) was 4.1 µM and the IC50 (LOX IMVI) was 3.5 µM.

For `CC[C@@]1(O)C(=O)OCc2c1cc1n(c2=O)Cc2cc3c(CN(C)C)c(OC(=O)N4CCN(c5ncc(C(=O)NO)cn5)CC4)ccc3nc2-1` [CY-705], the “solubility as compared to CY-700” value [1] was “significantly better solubility” and the “in vitro activities as compared to CY-700” value [2] was “comparable in vitro activities”.

In the case of `CCc1c2c(nc3ccc(OCCCCCCC(=O)NO)cc13)-c1cc3c(c(=O)n1C2)COC(=O)[C@]3(O)CC` [CY-700], the IC50 (HDAC-1; Fluor-de-Lys substrate, approximate IC50) is reported as 0.019 µM, the IC50 (SNB-19) is reported as 1.1 µM and the Ratio (SNB-19; Irinotecan IC50 / CY-700 IC50, SNB-19) is reported as 22.0. The IC50 (CAKI-1) was 0.7 µM, the Ratio (CAKI-1; Irinotecan IC50 / CY-700 IC50, CAKI-1) was 15.3 and the IC50 (RXF 393) was 2.3 µM. The Ratio (RXF 393; Irinotecan IC50 / CY-700 IC50, RXF 393) was 14.7, the IC50 (MCF7) was 0.5 µM and the Ratio (MCF7; Irinotecan IC50 / CY-700 IC50, MCF7) was 12.1. For the same compound, the IC50 (T-47D) was 2.1 µM, the Ratio (T-47D; Irinotecan IC50 / CY-700 IC50, T-47D) was 11.7 and the IC50 (CCRF-CEM) was 0.4 µM. The Ratio (CCRF-CEM; Irinotecan IC50 / CY-700 IC50, CCRF-CEM) was 9.7, the IC50 (SF-539) was 0.6 µM and the Ratio (SF-539; Irinotecan IC50 / CY-700 IC50, SF-539) was 8.9. It also gave an IC50 (SK-MEL-5) of 1.3 µM, a Ratio (SK-MEL-5; Irinotecan IC50 / CY-700 IC50, SK-MEL-5) of 8.6 and an IC50 (NCI/ADR-RES) of 5.1 µM. It also gave a Ratio (NCI/ADR-RES; Irinotecan IC50 / CY-700 IC50, NCI/ADR-RES) of 8.2, an IC50 (SF-268) of 0.5 µM and a Ratio (SF-268; Irinotecan IC50 / CY-700 IC50, SF-268) of 7.4. It also gave an IC50 (NCI-H226) of 1.2 µM, a Ratio (NCI-H226; Irinotecan IC50 / CY-700 IC50, NCI-H226) of 7.2 and an IC50 (BT-549) of 2.6 µM. For the same compound, the Ratio (BT-549; Irinotecan IC50 / CY-700 IC50, BT-549) was 7.0, the IC50 (SNB-75) was 2.3 µM and the Ratio (SNB-75; Irinotecan IC50 / CY-700 IC50, SNB-75) was 6.9. It also gave an IC50 (OVCAR-8) of 2.7 µM, a Ratio (OVCAR-8; Irinotecan IC50 / CY-700 IC50, OVCAR-8) of 6.4 and an IC50 (U251) of 0.7 µM. The Ratio (U251; Irinotecan IC50 / CY-700 IC50, U251) was 5.5, the IC50 (LOX IMVI) was 0.7 µM and the Ratio (LOX IMVI; Irinotecan IC50 / CY-700 IC50, LOX IMVI) was 5.2. For the same compound, the “number of cancer cell lines with better in vitro potency than Irinotecan” value [3] was 47.
